Measured values: US20090283473A1, “PLANT MATERIALS EXTRACTION METHOD” (Xylon Biotechnologies Ltd., priority 2002, published 2009)

Experiments:
Format in all cases: cell-based
[1] = test system: Seven species of bacteria and one species of fungus; experiment: Disk diffusion assay, whole panel; conditions: all bacteria and fungus of the screening
Source text: (§1) Microorganisms: Laboratory strains of bacteria and fungus were obtained from Dr. Neil Towers' and Dr. Jovel's lab, The University of British Columbia. Seven species of bacteria and one species of fungus will be used in the screening process. The bacteria strains consisted of Staphylococcus aureus, methicillin resistant Staphylococcus aureus, Bacillus subtilis and Enterococcus faecalis, Escherichia coli, Pseudomonas aeruginosa, and Salmonella typhimurium. The fungal species was Candida albicans.
(§2) Methods: Disk diffusion assay on agar plates inoculated with the organisms being studies. The plates were divided into quadrants or sixths using a black marking pen. In quadrant 1 and 2, negative and positive controls were run (no treatment and gentamicin). Test compounds were run on the remaining available portions.

[2] = test system: Candida albicans; experiment: Disk diffusion assay on agar plates; set-up: key: “+” active; “−” not active
Source text: as §1, §2

[3] = test system: Enterococcus faecalis; experiment: Disk diffusion assay on agar plates; set-up: key: “+” active; “−” not active
Source text: as §1, §2

[4] = test system: Pseudomonas aeruginosa; experiment: Disk diffusion assay on agar plates; set-up: key: “+” active; “−” not active
Source text: as §1, §2

CC(C)c1cccc(=O)c(O)c1 [Hinokitiol standard, 2,4,6-Cycloheptatrien-1-one,2-hydroxy-4-(1-methylethyl)]
anti-microbial activity across the panel (in words) [1]: demonstrated activities against all the bacteria and fungus

Gentamicin
Anti-microbial activity C.a [2]: −
Anti-microbial activity E.f. [3]: +
anti-microbial activity across the panel (in words) [1]: active against all the tested bacteria but not against C. albicans

CC1(C)C=CC=C(C(=O)O)C=C1 [Thujic acid standard, Thujic acid]
Anti-microbial activity P.a [4]: −
anti-microbial activity across the panel (in words) [1]: showed activities against some bacteria and fungus
